Laboratory results from patent US20050124622A1, “Compounds and methods for the treatment of pain” (priority 1999, published 2005).

The compounds below were run against T1, NMDA receptor glycine site (Rattus norvegicus, UniProt P35439) (assay: Test A: Inhibition of binding of [3H]-MDL105,519 to brain membranes). Conditions: not given.
T1 construct: brain membranes bearing the receptor; tissue Analytical Biological Services Inc; host or cells: rat brain (cerebral cortex and hippocampus) membranes
From the text: Test A: Inhibition of Binding of [^3H]-MDL105,519:
Binding of compounds to the NMDA receptor glycine site may be assessed by measuring the ability of test compounds to inhibit the binding of tritiated MDL105,519 to brain membranes bearing the receptor.
Briefly, fresh brain tissue including cerebral cortex and hippocampus from male Sprague Dawley rats was homogenized in 0.32 M sucrose and centrifuged at low speed to separate cellular membranes from other cellular components. The membranes were then washed 3 times using deionized water, followed by treatment with 0.04% Triton X-100. Finally, membranes were washed six times in 50 mM Tris citrate buffer, pH 7.4, and frozen at −80° C. until use.
[^3H]MDL105,519 (72 Ci/mmol) was purchased from Amersham. Cold MDL105,519 was purchased from Sigma/RBI. […] On the day of the experiment, brain membranes were thawed at room temperature and suspended in 50 mM tris acetate buffer, pH 7.4 (“TAB”). Seventy-five micro grams per milliliter protein (by using the BioRad dye) were used for competition binding. The experiments were carried out using 96-well plates. […] Non specific binding was determined by using 100 μM of unlabeled MDL105,519. […] After incubation, unbound [^3H]MDL105,519 was removed by filtration onto GF/B Unifilter plates using a Packard harvester. Filters were washed four times with ice cold TAB (total of 1.2 mL buffer). The plates were dried overnight at room temperature and bound radioactivity was measured on a Packard TopCount after the addition of 45 μL per well of the MICROSCINT O.
Human Brain Membranes: Human brain membranes were obtained from Analytical Biological Services Inc., and assays were performed as described for rat membranes.
Data analysis: Data was analyzed using a Microsoft Excel spreadsheet and GraphPad Prizm software and potency of compounds is expressed as the Ki (nM).
In the case of O=c1c2ccc(Cl)cc2[nH]c2c(O)nn(CC3CCCO3)c(=O)c12 (racemic) [Ex. 4, 7-Chloro-4-hydroxy-2-(tetrahydro-furan-2-ylmethyl)-1,2,5,10-tetrahydropyridazino[4,5-b]quinoline-1,10-dione], the Ki is reported as 449 nM.
For O=c1c2ccc(Cl)cc2[nH]c2c(O)nn(Cc3ccc(-c4nnco4)cc3)c(=O)c12 [Ex. 1, 7-Chloro-4-hydroxy-2-(4-[1,3,4]oxadiazol-2-yl-benzyl)-1,2,5,10-tetrahydropyridazino[4,5-b]quinoline-1,10-dione], the Ki was 95.8 nM.
Work on Cc1ncc(CO)c(Cn2nc(O)c3[nH]c4cc(Cl)ccc4c(=O)c3c2=O)c1O [Ex. 3, 7-Chloro-4-hydroxy-2-[3-hydroxy-5(hydroxymethyl)-2-methyl(4-pyridyl)]methyl-1,2,5,10-tetrahydropyridazino[4,5-b]quinoline-1,10-dione Methanesulfonate] yielded a Ki of 1150 nM.
For O=Cc1ccc(Cn2nc(O)c3[nH]c4cc(Cl)ccc4c(=O)c3c2=O)cc1 [Ex. 7, 4-[(7-Chloro-4-hydroxy-1,10-dioxo-2.5-dihydropyridazino[4,5-b]quinolin-2-yl)methyl]benzaldehyde], the Ki was 173 nM.
CC(C)(C)OC(=O)NN=Cc1ccc(Cn2nc(O)c3[nH]c4cc(Cl)ccc4c(=O)c3c2=O)cc1 [Ex. 8] showed a Ki of 124 nM.
Work on O=c1c2ccc(Cl)cc2[nH]c2c(O)nn(Cc3ccc(C=NNc4ccccn4)cc3)c(=O)c12 [Ex. 9, 2-{[4-[2-Aza-2-(2-pyridylamino)vinyl]phenyl}methyl)-7-chloro-4-hydroxy-2,5-dihydropyridazino[4,5-b]quinoline-1,10-dione] yielded a Ki of 159 nM.
With O=C(NN=Cc1ccc(Cn2nc(O)c3[nH]c4cc(Cl)ccc4c(=O)c3c2=O)cc1)c1ccccc1 [Ex. 10] the Ki was 91 nM.
In the case of Cc1cc(C)c(S(=O)(=O)NN=Cc2ccc(Cn3nc(O)c4[nH]c5cc(Cl)ccc5c(=O)c4c3=O)cc2)c(C)c1 [Ex. 11, 2-{[4-(2-Aza-2-{[(2,4,6-trimethylphenyl)sulfonyl]amino}vinyl)phenyl]methyl}-7-chloro-4-hydroxy-2,5-dihydropyridazino[4,5-b]quinoline-1,10-dione], the Ki is reported as 227 nM.

Same assay, conditions: inhibition of 1.2 nM [3H]MDL105,519 binding to brain membranes, 30 minutes at room temperature
O=c1c2ccc(Cl)cc2[nH]c2c(O)nn(Cc3cccc(-c4nnn[nH]4)c3)c(=O)c12 [Ex. 2, 7-Chloro-4-hydroxy-2-[3-(1H-tetrazol-5-yl)-benzyl]-1,2,5,10-tetrahydropyridazino[4.5-b]quinoline-1,10-dione.] gave a Ki of 42.7 nM.
Compound COc1ccc(-c2nnc(Cn3nc(O)c4[nH]c5cc(Cl)ccc5c(=O)c4c3=O)o2)cc1 [Ex. 5, 7-Chloro-4-hydroxy-2-[5-(4-methoxy-phenyl)-[1,3,4]oxadiazol-2-ylmethyl]-1,2,5,5,10-tetrahydropyridazino[4,5-b]quinoline-1,10-dione] has a Ki of 146 nM.
